Experimental data: patent EP0776155B1, “DELIVERY OF EXOGENOUS CHEMICAL SUBSTANCES TO PLANT TISSUES” (MONSANTO COMPANY, priority 1994, dated 1996)

Tests used:
Type in all cases: in vivo
[1] = tested on: velvetleaf (Abutilon theophrasti, ABUTH); test: Example 11: percent control, time between abrasion and glyphosate application varied (hours); settings: glyphosate rate (kg a.e./ha)
Procedure: (§1) In these Examples illustrative of the invention, velvetleaf (Abutilon theophrasti, ABUTH) seeds were planted in 4-inch (10.1 cm) square pots containing 100% silt loam soil to which 35 grams/cu ft (1.25 kg/m^3) IBDU fertilizer was added, and covered with a mix of 50% Rediearth plus 50% silt loam. The pots were sub-irrigated and the seedlings thinned after emergence to 2 plants per pot.
(§2) Abrasion was applied using propelled 200-mesh garnet exactly as described for Examples 1-9. The herbicide used in these Examples was glyphosate as its isopropylamine salt, applied as diluted MON 2139, exactly as described for Examples 1-9.
(§3) The time period between abrasion and herbicide application was varied as follows. In Example 11, all abrasion treatments were applied within a short period of time, and herbicide applications were made 2, 4 and 24 hours after abrasion. A set of abraded plants received no herbicide at any time. In addition, herbicide applications were made to unabraded plants at two times: (i) at the time of abrasion, and (ii) 24 hours after the time of abrasion. In Example 12, all herbicide applications were made within a short period of time, and abrasion was applied 5, 2 and 1 days before herbicide application. In addition, herbicide application was made to unabraded plants.
(§4) Three replications were performed of every treatment. After treatment, all plants were placed in the greenhouse for the remainder of the experiment, and sub-irrigated. The first replicate was placed in one block in order of the treatment list for ease of viewing and the remaining replicates were randomly placed in two separate blocks.
(§5) After an interval of 12-14 days after herbicide application, a visual evaluation was performed to estimate herbicidal efficacy as percent control of treated plants compared to untreated check plants.

[2] = tested on: velvetleaf (Abutilon theophrasti, ABUTH); test: Example 12: percent control, abrasion 5, 2, 1 days before glyphosate application; settings: glyphosate rate (kg a.e./ha)
Procedure: as §1, §2, §3, §4, §5

[3] = tested on: velvetleaf (Abutilon theophrasti, ABUTH); test: Example 49: percent control, dry ice (solid carbon dioxide) injury then glyphosate spray
Procedure: In this Example illustrative of the invention, velvetleaf (Abutilon theophrasti, ABUTH) seeds were planted in 4-inch (10.1-cm) square pots filled with 100% silt loam to which 35 g/cu ft (1.25 kg/m^3) IBDU fertilzer were added, and the seeds were covered with 50% Rediearth plus 50% silt loam without fertilizer. […] The same settings were maintained before and after treatment.
Physical injury in this Example was inflicted on the above-ground portions of the plants, two weeks after planting, by means of 15-30 particles of dry ice (carbon dioxide in its solid phase) propelled on to each plant using a 1 oz (28.3 ml) French square bottle having two 3 mm holes in the lid, with vigorous shaking of the bottle 8-12 inches (20-30 cm) above the plant canopy.
After dry ice treatment, plants were sprayed with glyphosate as its isopropylamine salt, in the form of the aqueous concentrate formulation MON 2139 of Monsanto Company. Plants with and without the dry ice treatment were sprayed at the same time using a track sprayer calibrated to deliver 20 gallons/acre (187 liters/ha) water with an 8002E nozzle having a 50-mesh screen, 16 inches (41 cm) above the plant canopy. Each treatment was replicated three times. Similar glyphosate treatments were applied to plants which had not received dry ice. Plants were returned to the greenhouse after spraying. […]

SMILES: O=C(O)CNCP(=O)(O)O [glyphosate, N-phosphonomethylglycine]
- percent control of ABUTH 14 days after glyphosate application ([1]; abraded before 0 h, glyphosate 0.056 kg a.e./ha): 70%
- percent control of ABUTH 14 days after glyphosate application ([1]; abraded before 0 h, glyphosate 0.11 kg a.e./ha): 78%
- percent control of ABUTH 14 days after glyphosate application ([1]; abraded before 2 h, glyphosate 0.056 kg a.e./ha): 73%
- percent control of ABUTH 14 days after glyphosate application ([1]; abraded before 2 h, glyphosate 0.11 kg a.e./ha): 85%
- percent control of ABUTH 14 days after glyphosate application ([1]; abraded before 4 h, glyphosate 0.056 kg a.e./ha): 79%
- percent control of ABUTH 14 days after glyphosate application ([1]; abraded before 4 h, glyphosate 0.11 kg a.e./ha): 94%
- percent control of ABUTH 14 days after glyphosate application ([1]; abraded before 24 h, glyphosate 0.056 kg a.e./ha): 45%
- percent control of ABUTH 14 days after glyphosate application ([1]; abraded before 24 h, glyphosate 0.11 kg a.e./ha): 76%
- percent control of ABUTH 12 days after glyphosate application ([2]; abraded before 0 days, glyphosate 0.056 kg a.e./ha): 79%
- percent control of ABUTH 12 days after glyphosate application ([2]; abraded before 0 days, glyphosate 0.11 kg a.e./ha): 95%
- percent control of ABUTH 12 days after glyphosate application ([2]; abraded before 0 days, glyphosate 0.22 kg a.e./ha): 100%
- percent control of ABUTH 12 days after glyphosate application ([2]; abraded before 1 day, glyphosate 0.056 kg a.e./ha): 77%
- percent control of ABUTH 12 days after glyphosate application ([2]; abraded before 1 day, glyphosate 0.11 kg a.e./ha): 92%
- percent control of ABUTH 12 days after glyphosate application ([2]; abraded before 1 day, glyphosate 0.22 kg a.e./ha): 100%
- percent control of ABUTH 12 days after glyphosate application ([2]; abraded before 2 days, glyphosate 0.056 kg a.e./ha): 76%
- percent control of ABUTH 12 days after glyphosate application ([2]; abraded before 2 days, glyphosate 0.11 kg a.e./ha): 93%
- percent control of ABUTH 12 days after glyphosate application ([2]; abraded before 2 days, glyphosate 0.22 kg a.e./ha): 100%
- percent control of ABUTH 12 days after glyphosate application ([2]; abraded before 5 days, glyphosate 0.056 kg a.e./ha): 52%
- percent control of ABUTH 12 days after glyphosate application ([2]; abraded before 5 days, glyphosate 0.11 kg a.e./ha): 73%
- percent control of ABUTH 12 days after glyphosate application ([2]; abraded before 5 days, glyphosate 0.22 kg a.e./ha): 97%
- percent control of ABUTH 12 days after glyphosate application ([2]; abraded before 5 days, glyphosate 0.45 kg a.e./ha): 100%
- percent control of ABUTH ([3]; glyphosate rate 0.014 kg a.i./ha, not treated with dry ice, 5 DAT): 0%
- percent control of ABUTH ([3]; glyphosate rate 0.014 kg a.i./ha, not treated with dry ice, 11 DAT): 0%
- percent control of ABUTH ([3]; glyphosate rate 0.014 kg a.i./ha, treated with dry ice, 5 DAT): 0%
- percent control of ABUTH ([3]; glyphosate rate 0.014 kg a.i./ha, treated with dry ice, 11 DAT): 0%
- percent control of ABUTH ([3]; glyphosate rate 0.028 kg a.i./ha, not treated with dry ice, 5 DAT): 0%
- percent control of ABUTH ([3]; glyphosate rate 0.028 kg a.i./ha, not treated with dry ice, 11 DAT): 0%
- percent control of ABUTH ([3]; glyphosate rate 0.028 kg a.i./ha, treated with dry ice, 5 DAT): 0%
- percent control of ABUTH ([3]; glyphosate rate 0.028 kg a.i./ha, treated with dry ice, 11 DAT): 0%
- percent control of ABUTH ([3]; glyphosate rate 0.056 kg a.i./ha, not treated with dry ice, 5 DAT): 0%
- percent control of ABUTH ([3]; glyphosate rate 0.056 kg a.i./ha, not treated with dry ice, 11 DAT): 0%
- percent control of ABUTH ([3]; glyphosate rate 0.056 kg a.i./ha, treated with dry ice, 5 DAT): 0%
- percent control of ABUTH ([3]; glyphosate rate 0.056 kg a.i./ha, treated with dry ice, 11 DAT): 2%
- percent control of ABUTH ([3]; glyphosate rate 0.11 kg a.i./ha, not treated with dry ice, 5 DAT): 8%
- percent control of ABUTH ([3]; glyphosate rate 0.11 kg a.i./ha, not treated with dry ice, 11 DAT): 0%
- percent control of ABUTH ([3]; glyphosate rate 0.11 kg a.i./ha, treated with dry ice, 5 DAT): 22%
- percent control of ABUTH ([3]; glyphosate rate 0.11 kg a.i./ha, treated with dry ice, 11 DAT): 8%
- percent control of ABUTH ([3]; glyphosate rate 0.21 kg a.i./ha, not treated with dry ice, 5 DAT): 60%
- percent control of ABUTH ([3]; glyphosate rate 0.21 kg a.i./ha, not treated with dry ice, 11 DAT): 73%
- percent control of ABUTH ([3]; glyphosate rate 0.21 kg a.i./ha, treated with dry ice, 5 DAT): 71%
- percent control of ABUTH ([3]; glyphosate rate 0.21 kg a.i./ha, treated with dry ice, 11 DAT): 83%
- percent control of ABUTH ([3]; glyphosate rate 0.45 kg a.i./ha, not treated with dry ice, 5 DAT): 80%
- percent control of ABUTH ([3]; glyphosate rate 0.45 kg a.i./ha, not treated with dry ice, 11 DAT): 100%
- percent control of ABUTH ([3]; glyphosate rate 0.45 kg a.i./ha, treated with dry ice, 5 DAT): 89%
- percent control of ABUTH ([3]; glyphosate rate 0.45 kg a.i./ha, treated with dry ice, 11 DAT): 100%
- percent control of ABUTH ([3]; glyphosate rate 0.89 kg a.i./ha, not treated with dry ice, 5 DAT): 97%
- percent control of ABUTH ([3]; glyphosate rate 0.89 kg a.i./ha, not treated with dry ice, 11 DAT): 100%
- percent control of ABUTH ([3]; glyphosate rate 0.89 kg a.i./ha, treated with dry ice, 5 DAT): 93%
- percent control of ABUTH ([3]; glyphosate rate 0.89 kg a.i./ha, treated with dry ice, 11 DAT): 100%
